Molecules are shown by their SMILES. Read-outs that look alike come from different tables or passages of the source.

The assay addresses T1, stromelysin (Homo sapiens, UniProt P08254).
T1 construct: made in house; host or cells: E. coli
Kind of assay: Determination of stromelysin inhibition (thiopeptide ester substrate cleavage, DTNB, microtiter plate). Format: biochemical. The method, then: The efficacy of the compounds of this invention as matrix metalloproteinase inhibitors was determined by measuring the inhibition of stromelysin. The inhibition of stromelysin by the compounds of this invention was determined as follows: Recombinant truncated stromelysin (human sequence) produced in E. coli was prepared by expression and purification of the protein as described by Ye et al., Biochemistry, 1992, 31, 11231-11235. The enzyme was assayed by its cleavage of the thiopeptide ester substrate Ac-Pro-Leu-Gly-[2-mercapto-4-methyl-pentanoyl]-Leu-Gly-OEt described by Weingarten and Feder, Anal. Biochem., 1985, 147, 437-440 (1985), as a substrate of vertebrate collagenase. The reported conditions were modified to allow assays to be carried out in a microtiter plate. Upon hydrolysis of the thioester bond, the released thiol group reacts rapidly with 5,5'-dithio-bis(2-nitrobenzoic acid) (DTNB), producing a yellow color which is measured by a microtiter plate reader set at 405 nm. The rates of cleavage of the substrate by stromelysin in the presence or absence of inhibitors are measured in a 30 min assay at ambient temperature. Solutions of the compounds in DMSO are prepared, and these are diluted at various concentrations into the assay buffer (50 mM MES/NaOH pH 6.5 with 10 mM CaCl2 and 0.2% Pluronic F-68), which is also used for dilution of the enzyme and substrate. The potency of the compounds [IC50 ] are calculated from the inhibition/inhibitor concentration data.

Setting [1] is: recombinant truncated stromelysin (human sequence), thiopeptide ester substrate, pH 6.5, 30 min, ambient temperature, read-out: IC50 (Inhibitory Potencies against Stromelysin).

T1 sequence (P08254 100-272 limits assumed): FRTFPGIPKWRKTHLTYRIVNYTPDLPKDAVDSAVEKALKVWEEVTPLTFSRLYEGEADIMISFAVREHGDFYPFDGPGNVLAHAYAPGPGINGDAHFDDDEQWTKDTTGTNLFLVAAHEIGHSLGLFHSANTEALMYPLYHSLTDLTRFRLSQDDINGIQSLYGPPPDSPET

For the compound `CC(C)C[C@@H](C(=O)N[C@@H](Cc1ccccc1)C(=O)c1c[nH]c2ccccc12)[C@H](O)C(=O)NO` [Example 12], the IC50 under setting [1] was found to be 7.8 nM.

Regarding `O=C(c1c[nH]c2ccccc12)[C@H](Cc1ccccc1)NC(=O)[C@@H](CCCc1ccccc1)[C@H](O)C(=O)NO` [Example 28], the IC50 under setting [1] was found to be 320 nM.

Compound `C=CC[C@H](C(=O)NO)[C@@H](CC(C)C)C(=O)NC(Cc1ccccc1)C(=O)c1cccnc1` (stereo partly drawn) [Example 22] gave a half-inhibitory concentration (IC50) of 10 nM.

As to `CC(C)C[C@H](CC(=O)NO)C(=O)N[C@@H](Cc1ccccc1)C(=O)c1c[nH]c2ccccc12` [Example 5], the IC50 under setting [1] was 5.6 nM.

`O=C(C[C@H](C(=O)N[C@@H](Cc1ccc(O)cc1)C(=O)c1ccccc1)C1CCCCC1)NO` [Example 33]: under setting [1], the IC50 is 110 nM.

Turning to `C=CC[C@H](C(=O)NO)[C@@H](CC(C)C)C(=O)N[C@@H](Cc1ccccc1)C(C)=O` [Example 17], the IC50 under setting [1] worked out at 16 nM.

The compound `CC(C)C[C@@H](C(=O)N[C@H](Cc1ccccc1)C(=O)c1c[nH]c2ccccc12)[C@H](O)C(=O)NO` [Example 13] returned a concentration for half-maximal inhibition (IC50) of 99 nM.

For `CC(C)C[C@H](CC(=O)NO)C(=O)N[C@@H](CC(=O)O)C(=O)c1c[nH]c2ccccc12` [Example 31], the IC50 under setting [1] amounted to 740 nM.

Consider `C=CCCC[C@H](C(=O)NO)[C@@H](CC(C)C)C(=O)N[C@@H](Cc1ccccc1)C(=O)c1c[nH]c2ccccc12` [Example 2], for which the IC50 under setting [1] turned out to be 3.6 nM.

Turning to `CC(C)C[C@@H](C(=O)N[C@@H](Cc1ccccc1)C(=O)c1ccccc1)[C@H](O)C(=O)NO` [Example 15], under setting [1], the half-maximal inhibitory concentration (IC50) came out at 27 nM.

On to `C=CCCC[C@H](C(=O)NO)[C@@H](CCCc1ccc(C)cc1)C(=O)N[C@@H](Cc1ccccc1)C(=O)c1c[nH]c2ccccc12` [Example 8], for which the IC50 under setting [1] is 8.6 nM.

Consider `Cc1ccc(CCC[C@H](CC(=O)NO)C(=O)N[C@@H](Cc2ccccc2)C(=O)c2c[nH]c3ccccc23)cc1` [Example 6], for which, under setting [1], the IC50 came out at 12 nM.

Consider `CC(C)C[C@@H](C(=O)N[C@@H](Cc1ccccc1)C(=O)c1c[nH]c2ccccc12)[C@H](O)C(=O)O` [Example 10], for which, under setting [1], the IC50 came out at 7100 nM.

For `C=CC[C@H](C(=O)NO)[C@@H](CC(C)C)C(=O)NC(Cc1ccccc1)C(=O)c1nccs1` (stereo partly drawn) [Example 26], it took 220 nM to reach half-maximal inhibition (IC50).

As to `C=CC[C@H](C(=O)NO)[C@@H](CC(C)C)C(=O)N[C@@H](Cc1ccccc1)C(=O)c1ccccc1` [Example 18], the IC50 under setting [1] stood at 4.5 nM.

As to `C=CCCC[C@H](C(=O)NO)[C@@H](CC(C)C)C(=O)N[C@@H](Cc1ccc(O)cc1)C(=O)c1ccccc1` [Example 19], the IC50 under setting [1] is 1.5 nM.

Regarding `C=CC[C@H](C(=O)NO)[C@@H](CC(C)C)C(=O)N[C@@H](Cc1ccccc1)C(=O)c1ccc[nH]1` [Example 21], the concentration for half-maximal inhibition (IC50) under setting [1] stood at 1.7 nM.

Take `C=CC[C@H](C(=O)NO)[C@@H](CC(C)C)C(=O)N[C@@H](CC1CCCCC1)C(=O)c1ccccc1` [Example 20]: the IC50 under setting [1] stood at 7.3 nM.

With `CON=C(c1c[nH]c2ccccc12)[C@H](Cc1ccccc1)NC(=O)[C@@H](CC(=O)NO)CC(C)C` [Example 30], the IC50 under setting [1] is 320 nM.

As to `CC(C)C[C@@H](C(=O)N[C@H](C(=O)c1c[nH]c2ccccc12)C(C)(C)C)[C@H](O)C(=O)NO` [Example 14], under setting [1], the half-inhibitory concentration (IC50) worked out at 1.2 nM.

As for `CC(C)C[C@@H](C(=O)N[C@H](Cc1ccccc1)C(=O)c1c[nH]c2ccccc12)[C@H](O)C(=O)O` [Example 11], the concentration for half-maximal inhibition (IC50) under setting [1] was found to be 93000 nM.

For `C=CCCC[C@H](C(=O)O)[C@@H](CCCc1ccc(C)cc1)C(=O)N[C@@H](Cc1ccccc1)C(=O)c1c[nH]c2ccccc12` [Example 7], the half-maximal inhibitory concentration (IC50) under setting [1] was determined as 8 nM.

As to `C=CC[C@H](C(=O)NO)[C@@H](CC(C)C)C(=O)N[C@H](C(=O)c1c[nH]c2ccccc12)C(C)(C)C` [Example 9], the IC50 under setting [1] worked out at 1.2 nM.

On to `O=C(c1c[nH]c2ccccc12)[C@H](Cc1ccccc1)NC(=O)[C@H](CCCc1ccccc1)[C@H](O)C(=O)NO` [Example 27], for which, under setting [1], the IC50 turned out to be 2.7 nM.

Broadly, the IC50 is the concentration at which inhibition is half-maximal.

Values taken from patent publication US5985911A, “C-terminal ketone inhibitors of matrix metalloproteinases and TNFα secretion” (Abbott Laboratories, priority 1997, dated 1999).
